{"source": "ChEMBL document CHEMBL6092191", "about": "“Advancing Cancer Immunotherapy through Engineering New PD-L1 Degraders: A Comprehensive Study from Small Molecules to PD-L1-Specific Peptide-Drug Conjugates” (J Med Chem, 2024)", "key": {"[1]": {"assay": "Toxicity in C57BL/6 mouse model xenografted with […] cells assessed as damage in lung at 29.5 mg/kg, ip administered daily for 8 days by H and E staining based analysis", "assay_type": "organism-based", "details": "in vivo, 192 h, time 8 day"}, "[2]": {"assay": "Toxicity in C57BL/6 mouse model xenografted with […] cells assessed as damage in spleen at 29.5 mg/kg, ip administered daily for 8 days by H and E staining based analysis", "assay_type": "organism-based", "details": "in vivo, 192 h, time 8 day"}, "[3]": {"assay": "Toxicity in C57BL/6 mouse model xenografted with […] cells assessed as change in creatinine level at 29.5 mg/kg, ip administered daily for 8 days", "assay_type": "organism-based", "details": "in vivo, 192 h, time 8 day"}, "[4]": {"assay": "Toxicity in C57BL/6 mouse model xenografted with […] cells assessed as damage in heart at 29.5 mg/kg, ip administered daily for 8 days by H and E staining based analysis", "assay_type": "organism-based", "details": "in vivo, 192 h, time 8 day"}, "[5]": {"assay": "Antiproliferative activity against human HTori-3 cells at 10 uM incubated for 4 days", "assay_type": "toxicity, cell-based", "details": "htori-3, 96 h, time 4 day"}, "3T3-L1": {"test_system": "3T3-L1", "assay": "Antiproliferative activity against mouse 3T3-L1 cells at 10 uM incubated for 4 days", "assay_type": "toxicity, cell-based", "details": "3t3-l1, 96 h, time 4 day"}, "[6]": {"assay": "Toxicity in C57BL/6 mouse model xenografted with […] cells assessed as damage in kidney at 29.5 mg/kg, ip administered daily for 8 days by H and E staining based analysis", "assay_type": "organism-based", "details": "in vivo, 192 h, time 8 day"}, "[7]": {"assay": "Toxicity in C57BL/6 mouse model xenografted with […] cells assessed as obvious body weight change at 29.5 mg/kg, ip administered daily for 8 days", "assay_type": "organism-based", "details": "in vivo, 192 h, time 8 day"}, "Mus musculus": {"test_system": "Mus musculus", "assay": "In vivo induction of PD-L1 degradation in […] lung carcinoma cells xenografted in C57BL/6 mouse model at 29.5 mg/kg, ip administered daily for 8 days by IHC analysis", "assay_type": "functional, organism-based", "details": "time 8.0 day"}, "[8]": {"test_system": "Lewis lung carcinoma cell line", "assay": "Antitumor activity against Lewis lung carcinoma cells xenografted in C57BL/6 mouse model assessed as decrease in Ki-67 level at 29.5 mg/kg, ip administered daily for 8 days by IHC analysis", "assay_type": "functional, organism-based", "details": "time 8.0 day"}, "[9]": {"assay": "Toxicity in C57BL/6 mouse model xenografted with […] cells assessed as damage in liver at 29.5 mg/kg, ip administered daily for 8 days by H and E staining based analysis", "assay_type": "organism-based", "details": "in vivo, 192 h, time 8 day"}, "[10]": {"molecular_target": "COP9 signalosome complex subunit 5 (Homo sapiens) (UniProt Q92905)", "sequence (Q92905 2-334 limits assumed, one chain of several)": "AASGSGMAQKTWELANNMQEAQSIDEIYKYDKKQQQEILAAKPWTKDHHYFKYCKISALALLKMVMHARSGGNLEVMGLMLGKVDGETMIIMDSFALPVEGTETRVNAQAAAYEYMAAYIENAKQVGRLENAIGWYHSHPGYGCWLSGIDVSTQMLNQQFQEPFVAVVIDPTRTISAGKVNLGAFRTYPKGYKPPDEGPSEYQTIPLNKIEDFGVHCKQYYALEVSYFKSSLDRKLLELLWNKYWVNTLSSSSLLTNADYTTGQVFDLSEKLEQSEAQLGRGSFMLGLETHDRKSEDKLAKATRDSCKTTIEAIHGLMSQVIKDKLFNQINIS", "assay": "Induction of PD-L1 degradation in human NCI-H460 cells at 10 to 20 uM incubated for 2 days by Western blot analysis", "assay_type": "cell-based", "details": "dose 10-20 µM, time 2.0 day"}, "[11]": {"test_system": "Lewis lung carcinoma cell line", "assay": "Antitumor T-cell immune response in Lewis lung carcinoma cells xenografted in C57BL/6 mouse model assessed as decrease in CD3+ CD4+ population in CD45+ T cells in tumor at 29.5 mg/kg, ip administered daily for 8 days by flow cytometry", "assay_type": "functional, organism-based", "details": "time 8.0 day"}, "[12]": {"test_system": "Lewis lung carcinoma cell line", "assay": "Antitumor activity against Lewis lung carcinoma cells xenografted in C57BL/6 mouse model at 29.5 mg/kg, ip administered daily for 8 days relative to control", "assay_type": "functional", "details": "192 h, time 8 day, read-out: TGI"}, "[13]": {"assay": "Toxicity in C57BL/6 mouse model xenografted with […] cells assessed as change in BUN level at 29.5 mg/kg, ip administered daily for 8 days", "assay_type": "organism-based, Blood", "details": "in vivo, 192 h, time 8 day"}, "[14]": {"assay": "Toxicity in C57BL/6 mouse model xenografted with […] cells assessed as change in ALT level at 29.5 mg/kg, ip administered daily for 8 days", "assay_type": "organism-based, Blood", "details": "in vivo, 192 h, time 8 day"}, "[15]": {"test_system": "Lewis lung carcinoma cell line", "assay": "Antitumor T-cell immune response in Lewis lung carcinoma cells xenografted in C57BL/6 mouse model assessed as increase in CD3+ CD8+ infiltration in CD45+ T cells in tumor at 29.5 mg/kg, ip administered daily for 8 days by flow cytometry", "assay_type": "functional, organism-based", "details": "time 8.0 day"}, "[16]": {"assay": "Toxicity in C57BL/6 mouse model xenografted with […] cells assessed as change in AST level at 29.5 mg/kg, ip administered daily for 8 days", "assay_type": "organism-based, Blood", "details": "in vivo, 192 h, time 8 day"}, "[17]": {"test_system": "Lewis lung carcinoma cell line", "assay": "Antitumor T-cell immune response in Lewis lung carcinoma cells xenografted in C57BL/6 mouse model assessed as increase in ratio of CD8+ to CD4+ T cells in tumor at 29.5 mg/kg, ip administered daily for 8 days by flow cytometry", "assay_type": "functional, organism-based", "details": "time 8.0 day"}, "HEK-293T": {"test_system": "HEK-293T", "assay": "Antiproliferative activity against HEK293T cells at 10 uM incubated for 4 days", "assay_type": "toxicity, cell-based", "details": "human, 96 h, time 4 day"}}, "note": "The source made the active and inactive calls. No cut-off for these calls is given here."}
{"smiles": "COc1cc2c(cc1OC)-c1cc3ccc(OC)c(OCCNC(=O)OCCSSC[C@H](N)C(=O)NCCCCCC(=O)N[C@@H](CC(N)=O)C(=O)N[C@@H](Cc4ccc(O)cc4)C(=O)N[C@@H](CO)C(=O)N[C@@H](CCCCN)C(=O)N4CCC[C@H]4C(=O)N[C@H](C(=O)N[C@@H](CC(=O)O)C(=O)N[C@@H](CCCNC(=N)N)C(=O)N[C@@H](CCC(N)=O)C(=O)N[C@@H](Cc4ccc(O)cc4)C(=O)N[C@@H](Cc4cnc[nH]4)C(=O)N[C@@H](Cc4ccccc4)C(=O)O)[C@@H](C)O)c3c[n+]1CC2.[Cl-]", "values": [{"measurement": "Activity", "setting": "[1]", "result": "Non-toxic"}, {"measurement": "Activity", "setting": "[2]", "result": "Non-toxic"}, {"measurement": "Activity", "setting": "[3]", "result": "Non-toxic"}, {"measurement": "Activity", "setting": "[4]", "result": "Non-toxic"}, {"measurement": "Activity", "setting": "[5]", "result": "Non-toxic"}, {"measurement": "Activity", "setting": "3T3-L1", "result": "Non-toxic"}, {"measurement": "Activity", "setting": "[6]", "result": "Non-toxic"}, {"measurement": "Activity", "setting": "[7]", "result": "Non-toxic"}, {"measurement": "Activity", "setting": "Mus musculus", "result": "Active"}, {"measurement": "Activity", "setting": "[8]", "result": "Active"}, {"measurement": "Activity", "setting": "[9]", "result": "Non-toxic"}, {"measurement": "Activity", "setting": "[10]", "result": "Active; Comparable To Pmt-O9-1A"}, {"measurement": "Activity", "setting": "[11]", "result": "Active"}, {"measurement": "inhibition in vivo at 29.5 mg/kg", "setting": "[12]", "result": 89, "unit": "%"}, {"measurement": "Activity", "setting": "[13]", "result": "Non-toxic"}, {"measurement": "Activity", "setting": "[14]", "result": "Non-toxic"}, {"measurement": "Activity", "setting": "[15]", "result": "Active"}, {"measurement": "Activity", "setting": "[16]", "result": "Non-toxic"}, {"measurement": "Activity", "setting": "[17]", "result": "Active"}, {"measurement": "Activity", "setting": "HEK-293T", "result": "Non-toxic"}]}
